The source made the active and inactive calls.
How the values were obtained:
[1] = mitochondrial function rescue without frataxin homolog – Friedreich's ataxia, plus single-dose screen, dose response (AID 1465); assay type: functional;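 note: yeast depleted of Yfh1p frataxin homolog grown on glycerol needing respiration; WST-1 tetrazolium dye reduction as measure of cellular dehydrogenase metabolic activity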
[2] = biological target: T1, Alkaline phosphatase, tissue-nonspecific isozyme (Homo sapiens, UniProt P05186)
T1 sequence (P05186 whole entry): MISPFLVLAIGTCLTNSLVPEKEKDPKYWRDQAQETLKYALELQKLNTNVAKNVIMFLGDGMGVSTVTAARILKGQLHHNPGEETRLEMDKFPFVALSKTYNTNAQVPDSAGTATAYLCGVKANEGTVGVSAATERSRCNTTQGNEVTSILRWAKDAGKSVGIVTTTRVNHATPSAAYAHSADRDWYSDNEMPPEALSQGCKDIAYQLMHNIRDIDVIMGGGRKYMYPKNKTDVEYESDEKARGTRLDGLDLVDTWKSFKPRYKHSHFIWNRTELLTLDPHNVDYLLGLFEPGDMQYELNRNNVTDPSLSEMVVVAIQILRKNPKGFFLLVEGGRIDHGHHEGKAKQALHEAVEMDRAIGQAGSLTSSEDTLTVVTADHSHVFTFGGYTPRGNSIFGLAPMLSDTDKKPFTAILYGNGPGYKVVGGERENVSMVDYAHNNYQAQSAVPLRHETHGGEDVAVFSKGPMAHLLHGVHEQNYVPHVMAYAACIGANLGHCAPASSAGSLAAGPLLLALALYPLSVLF

[3] = biological target: Luciferin 4-monooxygenase (Photinus pyralis, UniProt P08659); test: Counter Screen for Luciferase-based Assay Positives. [Related pubchem assays: 620, 618, 411 ]
HT-1080 = test: HT1080 cell viability loss – fluorescence readout (AID 620); assay type: functional, cell-based; conditions: Homo sapiens
Bcl-2-like protein 10 = Bcl-2-like protein 10 (Homo sapiens, UniProt Q9HD36); test: Concentration-response of Bcl-B inhibitors by biochemical FP with TR3 (AID 1243); assay type: functional
[4] = biological target: Mothers against decapentaplegic homolog 3 (Homo sapiens, UniProt P84022); test: blockers of Smad3 complex formation in lysate – cell lysate, secondary confirmation, chemiluminescent ELISA, HEK293 lysate, dose response (AID 1058); assay type: functional
SUMO-activating enzyme [5] = biological target: T2, SUMO-activating enzyme (Homo sapiens, UniProt Q9UBT2); test: blockers of UBC9-mediated SUMO conjugation – biochemical, AlphaScreen, SUMOylation inhibitor project, confirmation (AID 2018); assay type: functional
[6] = CCR5-tropic HIV-1 fusion blockers – cell-based, CCR5-tropic Env, dose response (AID 2279); assay type: functional
SUMO-activating enzyme [7] = biological target: T2, SUMO-activating enzyme; test: blockers of SAE1/SAE2–UBC9 SUMO transfer – biochemical, HTRF, uHTS, primary screen (AID 2006); assay type: protein-complex assay
[8] = biological target: T3, Calpain-2 catalytic subunit (Sus scrofa, UniProt P43367); test: m-calpain protease blockers, concentration series – biochemical, fluorogenic peptide substrate, dose response (AID 1420); assay type: functional
T3 sequence (P43367 whole entry): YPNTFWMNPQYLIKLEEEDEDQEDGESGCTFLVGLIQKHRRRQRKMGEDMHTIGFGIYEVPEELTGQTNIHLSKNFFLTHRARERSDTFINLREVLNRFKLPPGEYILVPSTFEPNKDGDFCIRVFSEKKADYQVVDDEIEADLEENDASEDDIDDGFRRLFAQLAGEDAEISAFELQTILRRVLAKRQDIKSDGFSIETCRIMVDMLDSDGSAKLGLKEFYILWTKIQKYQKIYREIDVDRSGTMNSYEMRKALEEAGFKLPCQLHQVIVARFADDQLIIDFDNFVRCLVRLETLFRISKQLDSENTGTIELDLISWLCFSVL

[9] = biological target: Induced myeloid leukemia cell differentiation protein Mcl-1 (Homo sapiens, UniProt Q07820); assay type: functional
[10] = luciferase reporter signal suppression in cells – H4 neuroglioma cells, luminescence, dose response (AID 1990); assay type: functional, cell-based
BJ [11] = test: BJ-TERT fibroblast viability loss – cell-based, RAS-independent, luminescence, dose response (AID 1933); assay type: functional; conditions: Homo sapiens
[12] = Luminescence Cell-Based Dose Response HTS to Identify Inhibitors of 5'UTR Stem-Loop Driven Prion Protein mRNA Translation in H4 Neuroglioblastoma Cells. [Related pubchem assays: 1827 (Project Summary), 1813 (Primary HTS)]; assay type: functional
Vero [13] = test: mammalian cell viability reduction – secondary assay, cytotoxicity control for West Nile virus antiviral project, dose response (AID 1650); assay type: functional; conditions: Chlorocebus sabaeus
[14] = alpha-synuclein stem-loop luciferase translation blockers – H4 neuroglioma cells, luminescence, confirmation (AID 1988); assay type: functional, cell-based
BJ [15] = test: cells; assay type: functional, cell-based; conditions: Homo sapiens
[16] = Luminescence-based counterscreen assay for KLF5 inhibitors: dose response cell-based high throughput screening assay to identify cytotoxic compounds using the IEC-6 intestinal epithelial cell line. [Related pubchem assays: 1700 (Primary screen.), 1834 (Confirmation screen.), 1858 (Summary AID.), 1905 (Counterscreen.)]; assay type: functional
BJ [17] = test: BJ-TERT-LT-ST fibroblast viability loss – cell-based, RAS-independent, luminescence, dose response (AID 1935); assay type: functional; conditions: Homo sapiens;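 note: BJ fibroblasts immortalized with TERT plus LT and ST oncogenes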
[18] = DRD fibroblast viability loss – cell-based, non-viral oncogenic, luminescence, dose response (AID 1934); assay type: functional; conditions: Homo sapiens
[19] = Luminescence Cell-Based Dose Retest to Confirm Inhibitors of Cancer Stem Cells. [Related pubchem assays (depositor defined):AID2717, AID2721]; assay type: functional, Homo sapiens
[20] = HEK-293T viability loss after treatment – luminescence, T-cell screen hits, cytotoxicity control for TCR NF-kB inhibitor project, dose response (AID 489026); assay type: functional, cell-based;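 note: cells exposed to compound about 14 hours before the viability readout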
Vero [21] = test: cells; assay type: functional, cell-based; conditions: Chlorocebus sabaeus
BJ [22] = test: growth inhibition of engineered Ras-driven BJ cells – cell-based, alamar blue fluorescence, cherrypicked samples, dose response (AID 2631); assay type: functional; conditions: Homo sapiens;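 note: confirmatory dose-response assay in RAS-dependent BJ fibroblasts engineered with TERT, LT and ST, with cytotoxicity read by fluorescence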
Vero [23] = test: cells; assay type: functional; conditions: Chlorocebus sabaeus
Paired box protein Pax-8 = Paired box protein Pax-8 (Homo sapiens, UniProt Q06710); test: PAX8 transcriptional activity inhibition in RMG-I – RMG-I cells, luciferase, cherry-pick, dose response (AID 687027); assay type: functional, cell-based;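 note: luciferase reporter driven by Pax8 target thyroperoxidase promoter measured by SteadyGlo luminescence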
HeLa = test: Cytotoxicity counterscreen assay for transcriptional activators of heat shock protein 70 (Hsp70). [Related pubchem assays: 1203, 1252 ]; assay type: functional; conditions: Homo sapiens;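 note: cells exposed to compound for 16 hours before readout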

T2 sequence (Q9UBE0 whole entry, the tested form may be a part): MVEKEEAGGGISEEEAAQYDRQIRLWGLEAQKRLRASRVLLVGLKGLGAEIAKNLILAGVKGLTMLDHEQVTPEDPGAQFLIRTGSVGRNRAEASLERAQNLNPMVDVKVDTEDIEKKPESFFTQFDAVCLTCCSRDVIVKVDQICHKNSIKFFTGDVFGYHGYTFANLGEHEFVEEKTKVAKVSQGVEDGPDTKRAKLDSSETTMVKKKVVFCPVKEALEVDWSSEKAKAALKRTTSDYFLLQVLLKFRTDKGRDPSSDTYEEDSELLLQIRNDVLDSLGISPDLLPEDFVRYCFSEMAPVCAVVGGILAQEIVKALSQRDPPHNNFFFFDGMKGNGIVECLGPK
T2 sequence (Q9UBT2 whole entry, the tested form may be a part): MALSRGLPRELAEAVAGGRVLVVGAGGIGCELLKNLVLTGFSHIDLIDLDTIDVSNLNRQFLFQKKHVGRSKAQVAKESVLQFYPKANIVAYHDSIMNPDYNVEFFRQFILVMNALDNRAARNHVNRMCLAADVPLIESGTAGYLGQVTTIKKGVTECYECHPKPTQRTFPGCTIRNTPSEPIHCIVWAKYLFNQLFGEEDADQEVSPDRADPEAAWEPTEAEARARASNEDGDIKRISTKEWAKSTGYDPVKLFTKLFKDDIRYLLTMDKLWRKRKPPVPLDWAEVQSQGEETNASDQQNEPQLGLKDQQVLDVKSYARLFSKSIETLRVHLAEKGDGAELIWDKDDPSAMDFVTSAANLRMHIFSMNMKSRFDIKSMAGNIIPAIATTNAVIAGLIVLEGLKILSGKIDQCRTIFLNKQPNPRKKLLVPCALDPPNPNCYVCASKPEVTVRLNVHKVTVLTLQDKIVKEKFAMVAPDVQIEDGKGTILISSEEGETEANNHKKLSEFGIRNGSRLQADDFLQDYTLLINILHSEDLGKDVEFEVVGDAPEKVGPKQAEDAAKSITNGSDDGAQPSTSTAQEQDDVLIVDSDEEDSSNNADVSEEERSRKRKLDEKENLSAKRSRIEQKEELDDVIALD
Paired box protein Pax-8, sequence (Q06710 whole entry): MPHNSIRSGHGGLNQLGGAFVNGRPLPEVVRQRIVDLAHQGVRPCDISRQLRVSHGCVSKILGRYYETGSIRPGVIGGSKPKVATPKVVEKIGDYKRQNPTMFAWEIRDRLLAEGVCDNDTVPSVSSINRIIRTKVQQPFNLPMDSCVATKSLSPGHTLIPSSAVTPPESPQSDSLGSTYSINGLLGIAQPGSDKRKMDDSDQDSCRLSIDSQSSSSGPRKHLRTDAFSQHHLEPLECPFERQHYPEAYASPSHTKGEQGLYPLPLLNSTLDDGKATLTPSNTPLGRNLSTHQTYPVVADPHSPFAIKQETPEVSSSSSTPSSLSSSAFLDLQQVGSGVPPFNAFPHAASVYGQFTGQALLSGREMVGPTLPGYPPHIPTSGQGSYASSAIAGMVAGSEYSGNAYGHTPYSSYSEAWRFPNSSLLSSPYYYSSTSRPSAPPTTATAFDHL
Induced myeloid leukemia cell differentiation protein Mcl-1, sequence (Q07820 whole entry): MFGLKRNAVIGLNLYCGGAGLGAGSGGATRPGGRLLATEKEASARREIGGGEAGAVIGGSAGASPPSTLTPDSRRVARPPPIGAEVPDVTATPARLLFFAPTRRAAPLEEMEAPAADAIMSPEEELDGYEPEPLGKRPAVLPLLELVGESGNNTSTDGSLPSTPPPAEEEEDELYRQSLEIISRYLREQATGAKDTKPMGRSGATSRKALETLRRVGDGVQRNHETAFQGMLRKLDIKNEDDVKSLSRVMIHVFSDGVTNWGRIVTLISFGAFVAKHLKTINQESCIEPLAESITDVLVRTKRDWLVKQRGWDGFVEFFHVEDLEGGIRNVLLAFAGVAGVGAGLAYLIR
Mothers against decapentaplegic homolog 3, sequence (P84022 whole entry): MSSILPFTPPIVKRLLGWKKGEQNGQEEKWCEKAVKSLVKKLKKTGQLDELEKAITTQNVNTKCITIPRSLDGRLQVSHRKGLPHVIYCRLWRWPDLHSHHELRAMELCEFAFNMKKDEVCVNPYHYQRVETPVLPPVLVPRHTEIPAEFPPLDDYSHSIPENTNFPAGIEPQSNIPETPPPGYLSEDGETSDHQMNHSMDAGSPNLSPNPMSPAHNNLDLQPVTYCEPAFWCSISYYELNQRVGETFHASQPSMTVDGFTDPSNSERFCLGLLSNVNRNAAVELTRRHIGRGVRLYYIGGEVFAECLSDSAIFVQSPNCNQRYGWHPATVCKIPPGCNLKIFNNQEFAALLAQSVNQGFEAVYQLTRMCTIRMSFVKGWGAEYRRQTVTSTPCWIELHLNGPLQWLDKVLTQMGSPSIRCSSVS
Bcl-2-like protein 10, sequence (Q9HD36 whole entry): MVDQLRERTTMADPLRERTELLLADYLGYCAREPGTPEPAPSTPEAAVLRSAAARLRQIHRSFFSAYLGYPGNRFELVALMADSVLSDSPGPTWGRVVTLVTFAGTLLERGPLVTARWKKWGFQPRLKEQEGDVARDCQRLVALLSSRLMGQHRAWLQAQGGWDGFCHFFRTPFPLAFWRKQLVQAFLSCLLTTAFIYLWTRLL
Luciferin 4-monooxygenase, sequence (P08659 whole entry): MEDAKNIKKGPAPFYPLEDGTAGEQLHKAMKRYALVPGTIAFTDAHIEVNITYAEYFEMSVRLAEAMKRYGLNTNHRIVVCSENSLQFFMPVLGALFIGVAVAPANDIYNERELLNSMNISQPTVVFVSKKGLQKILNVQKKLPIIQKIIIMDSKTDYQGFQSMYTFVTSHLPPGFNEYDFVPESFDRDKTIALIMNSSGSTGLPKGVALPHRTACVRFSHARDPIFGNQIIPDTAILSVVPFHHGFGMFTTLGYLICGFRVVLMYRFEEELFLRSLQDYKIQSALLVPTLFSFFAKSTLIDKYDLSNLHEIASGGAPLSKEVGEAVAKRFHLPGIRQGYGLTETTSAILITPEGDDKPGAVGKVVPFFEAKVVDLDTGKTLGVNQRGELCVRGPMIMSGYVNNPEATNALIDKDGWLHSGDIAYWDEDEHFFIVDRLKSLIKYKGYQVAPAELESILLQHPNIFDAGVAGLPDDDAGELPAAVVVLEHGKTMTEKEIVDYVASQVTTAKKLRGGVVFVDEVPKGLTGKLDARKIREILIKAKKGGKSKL

SMILES: CCCOc1ccc(C2NC(S)=NC(c3ccccc3)=C2C(=O)Nc2ccc(C)cc2)cc1OC (stereo not drawn)
- EC50 [1]: > 100 µM (active)

SMILES: COCCNC(=O)CCC(=O)NNc1nc2ccccc2c2nc(-c3ccccc3)nn12
- EC50 [2]: 82 µM (not active)

SMILES: CCc1nnc(NC(=O)c2ccc(OC)cc2OC)s1
- EC50 [3]: > 100 µM (not active)
- EC50 (HT-1080): > 50 µM (not active)

SMILES: COc1ccc(OC)c(C=NNC(=O)c2cc[n+](CC(=O)c3ccccc3)cc2)c1
- EC50 (Bcl-2-like protein 10): 1.35 µM (active)

SMILES: COc1ccc(C(c2cc3c(cc2O)OCO3)N2CCCC2)cc1 (stereo not drawn)
- IC50 [4]: 14.6 µM (not active)

SMILES: O=[N+]([O-])c1cccc(S(=O)(=O)Nc2nc3ccccc3nc2Nc2cccc(S(=O)(=O)N3CCCCC3)c2)c1
- IC50 (SUMO-activating enzyme [5]): 4.59 µM (active)
- IC50 [6]: 6.03 µM (active)
- IC50 (SUMO-activating enzyme [7]): 20.1 µM (active)
- IC50 [8]: 4.49 µM (not active)
- IC50 [9]: 5.85 µM (active)

SMILES: C[C@@H]1O[C@@H](O[C@H]2C[C@@H](O)[C@]3(CO)[C@H]4[C@H](O)C[C@]5(C)[C@@H](C6COC(=O)C6)CC[C@]5(O)[C@@H]4CC[C@]3(O)C2)[C@H](O)[C@H](O)[C@H]1O (stereo partly drawn)
- EC50 [10]: 0.251 µM (active)
- EC50 (BJ [11]): 0.405 µM (inconclusive)
- EC50 [12]: 0.132 µM (active)
- CC50 (Vero [13]): 1.91 µM (active)
- EC50 [14]: 0.102 µM (active)
- EC50 (BJ [15]): 4.77 µM (inconclusive)
- IC50 [16]: > 39.8 µM (not active)
- EC50 (BJ [17]): 2.78 µM (inconclusive)
- EC50 [18]: 0.44 µM (active)
- AC50 [19]: 1.28 µM (active)
- AC50 ([19]; Homo sapiens): 1.46 µM (active)
- IC50 [20]: > 80 µM (inactive)
- IC50 (Vero [21]): < 0.05 µM (active)
- EC50 (BJ [22]): 0.39 µM (active)
- CC50 (Vero [23]): 4.84 µM (active)
- AC50 (Paired box protein Pax-8): 5.38 µM (active)

SMILES: Cc1cc(C)nc(SCc2nnc(SCC(=O)Nc3cc(C(F)(F)F)ccc3Cl)o2)n1
- CC50 (HeLa): > 99 µM (not active)

Reference: ChEMBL document CHEMBL1201862, “PubChem BioAssay data set” (2004)
